In brackets after ≈: the same amount, converted by molar mass.
The compounds below were run on Mycolicibacterium smegmatis (assay: Antimycobacterial activity against Mycobacterium smegmatis ATCC 14468 after 72 hrs by broth microdilution assay). Details: ATCC 14468, 72 h.
Type: functional

| Compound | MIC |
| --- | --- |
| CCCCCCN(CCCCCC)S[C@@H]1O[C@@H]([C@H](O)CO)[C@H](O)[C@H]1O | > 64 µg/mL |
| CCCCCCCCN(CCCCCCCC)S[C@@H]1O[C@@H]([C@H](O)CO)[C@H](O)[C@H]1O | 4 µg/mL (≈ 9.18 µM) |
| OC[C@@H](O)[C@@H]1O[C@@H](SN(Cc2ccccc2)Cc2ccccc2)[C@H](O)[C@H]1O | 16 µg/mL (≈ 40.9 µM) |
| CCCCCCN(CCCCCC)S(=O)(=O)[C@@H]1O[C@@H]([C@H](O)CO)[C@H](O)[C@H]1O | 64 µg/mL (≈ 156 µM) |
| CCCCCCCCCCN(CCCCCCCCCC)S(=O)(=O)[C@@H]1O[C@@H]([C@H](O)CO)[C@H](O)[C@H]1O | > 32 µg/mL |
| O=S(=O)([C@@H]1O[C@@H]([C@H](O)CO)[C@H](O)[C@H]1O)N(Cc1ccccc1)Cc1ccccc1 | > 64 µg/mL |
| CCCCCCCCCCN(CCCCCCCCCC)S[C@@H]1O[C@@H]([C@H](O)CO)[C@H](O)[C@H]1O | 1 µg/mL (≈ 2.03 µM) |
| CCCCCCCCN(CCCCCCCC)S(=O)(=O)[C@@H]1O[C@@H]([C@H](O)CO)[C@H](O)[C@H]1O | 2 µg/mL (≈ 4.28 µM) |

Reference: ChEMBL document CHEMBL1147194, “Synthesis and evaluation of galactofuranosyl N,N-dialkyl sulfenamides and sulfonamides as antimycobacterial agents” (2007)
